Assays:
[1] = test system: oxaliplatin resistance HCT116 cells; assay: Calculated oxaliplatin IC50 in oxaliplatin resistant HCT116 cells; conditions: read-out: calculated IC50; HCT116 cells rendered oxaliplatin resistant by stepwise increasing oxaliplatin over 16 passages
[2] = test system: HCT116 cells; assay: Calculated oxaliplatin IC50 in parental HCT116 cells; conditions: read-out: calculated IC50

O=C1[O][Pt]2([NH][C@@H]3CCCC[C@H]3[NH]2)[O]C1=O [oxaliplatin]
IC50 [1]: 5000 nM | IC50 [2]: 350 nM

Reference: patent US20130323231A1, “TREATMENT AND PROGNOSIS OF SOLID TUMOUR CANCERS” (ROYAL COLLEGE OF SURGEONS IN IRELAND, priority 2011, published 2013)
